In this assay the test system is KRAS PDC tumor spheroids (HUVEC+MSC), viability. The experiment in a line: Anticancer human tumor 254851-301-R-J1-PDC patient-derived colon carcinoma cell line growth inhibition [KRAS2]. Conditions: for viability, T/C: stronger effect = lower value. The source says: Multicellular complex tumor spheroid response to RAS pathway inhibitors in combination with a targeted agents in patient-derived cell lines with oncogenic KRAS variants from multiple cancer types
A high-throughput screen of multi-cell type tumor spheroids was designed to identify active combinations of targeted small molecules and KRAS pathway inhibitors. Complex spheroids include a stromal component modeled by human endothelial cells (HUVEC) and fibroblasts modeled by human mesenchymal stem cells (MSCs). The concentration ranges selected for each drug and investigational agent were based upon clinically achievable concentrations if the clinical Cmax of the agent was known.
Compounds. The drugs and investigational agents: BI-3406 (NSC825286), BAY-293 (NSC824723), batoprotafib (TNO155; NSC825523), sotorasib (AMG 510; NSC818433), MRTX1257 (NSC819558), elimusertib (BAY 1895344; NSC800525), molibresib (GSK525762; NSC774829), temuterkib (LY3214996; NSC803410), venetoclax (NSC766270), alisertib (NSC759677), olaparib (NSC753686), talazoparib (NSC767125), erdafitinib (NSC781556), ipatasertib (NSC767898), cabozantinib (NSC761068), nintedanib (NSC756659), abemaciclib (NSC768073), docetaxel (NSC628503), trametinib (NSC758246), and sapanisertib (NSC764658) were obtained from the National Cancer Institute (NCI) Developmental Therapeutics Program Chemical Repository. The FDA-approved anticancer drug set is available from the Developmental Therapeutics Program. […] The stock solutions were prepared in dimethyl sulfoxide (DMSO, Sigma-Aldrich, St. Louis, MO, cat. D2650) at 800-fold the tested concentration and stored at -70 degrees C prior to their use. All drugs and investigational agents were tested over a range starting from a high concentration at or near the clinical Cmax and decreasing in half-log increments. If the clinical Cmax for an agent had not been determined, the highest concentration tested was 10 microM.
Cell Culture. All cells were maintained in an incubator at 37 degrees C and 5% CO2 with 95% humidity. The PDC lines were cultured according to standard operating procedures established by the NCI PDMR (https://pdmr.cancer.gov/sops/default.htm). Briefly, all PDCs were thawed and cultured in Matrigel-coated flasks prepared with a working solution of 1X Ham's F-12 nutrient mix, without supplementation (Invitrogen, Waltham, MA, cat. 11765054), 100 U/mL penicillin-streptomycin (Invitrogen, cat. 15140122), and 2.5% Matrigel (Corning Inc., Corning, NY, cat. 354248) for the first three passages. All PDCs were cultured in complete DMEM/F-12 media containing advanced DMEM/F-12 (Invitrogen, cat. 12634028), 4.9% defined fetal bovine serum, heat inactivated (HyClone Laboratories Inc., Logan, UT, cat. SH30070.03HI), 389 ng/mL hydrocortisone (Sigma-Aldrich, cat. H4001), 9.7 ng/mL human EGF recombinant protein (Invitrogen, cat. PHG0313), 23.4 microg/mL adenine (Sigma-Aldrich, cat. A2786), 97.3 U/mL penicillin-streptomycin (Invitrogen, cat. 15140122), 1.9 mM L-glutamine (Invitrogen, cat. 25030081), and 9.7 microM Y-27632 dihydrochloride (Tocris Bioscience, Bristol, United Kingdom, cat. 1254). The PDCs were cultured in complete DMEM/F12 media without 9.7 microM Y-27632 dihydrochloride for at least two passages prior to the screen. The established cell line HOP-62 was cultured in RPMI 1640 medium, HEPES (Invitrogen, cat. 22400105) with 10% defined fetal bovine serum (HyClone Laboratories Inc., cat. SH30070.03) and 2 mM L-glutamine (Invitrogen, cat. 25030081). The pooled donor HUVEC were cultured in endothelial cell growth medium 2 (PromoCell, Heidelberg, Germany, cat. C-22011) and the hMSC were cultured in mesenchymal stem cell growth medium 2 (PromoCell, cat. C-28009). For all experiments, HUVEC and hMSC were used at passages </=5, while the malignant cell lines were used at passages </=15. […]

Where [1] appears, read: compound alone, run of 07/12/2021.
Setting [2] is: compound alone, run of 07/19/2021.
The mark [3] stands for this setting: compound alone, run of 07/26/2021.

Each structure is given as a SMILES string. Values joined by “and” are separate entries in the source; they are usually repeats but may differ in a detail not shown here. Equal entries are not always repeated. A value given as a limit tells only on which side of the number the result lay.
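Also: spheroids exposed to compounds for seven days before readout.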
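For viability, T/C in this document: 100% = DMSO vehicle control luminescence of the spheroids.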

As to `C=CC(=O)N1CCN(c2nc(OCC3CCCN3C)nc3c2CCN(c2cccc4cccc(C)c24)C3)CC1CC#N` (stereo not drawn), the viability, T/C by setting is: (compound 0.0316 µM) 98.7% [middle of 17 runs]; (compound 0.1 µM) 97% [middle of 17 runs]. The IC50 is, setting by setting: under setting [1], > 3.16 µM; under setting [2], > 3.16 µM; under setting [3], > 3.16 µM.

As for `CC(=O)Nc1cccc(-n2c(=O)n(C3CC3)c(=O)c3c(Nc4ccc(I)cc4F)n(C)c(=O)c(C)c32)c1`, the viability, T/C by setting is: (compound 0.0001 µM) 105% [middle of 5 runs]; (compound 0.000316 µM) 96.8% [middle of 5 runs]; (compound 0.001 µM) 91.9% [middle of 5 runs]; (compound 0.00316 µM) 75.8% [middle of 5 runs]; (compound 0.01 µM) 26.8% [middle of 5 runs]; (compound 0.0316 µM) 3.1% [middle of 5 runs]. Further, the IC50 (curve of compound) is 5.78 nM [middle of 5 runs].

Consider `CC(=O)OC12COC1CC(O)C1(C)C(=O)C(O)C3=C(C)C(OC(=O)C(O)C(NC(=O)OC(C)(C)C)c4ccccc4)CC(O)(C(OC(=O)c4ccccc4)C21)C3(C)C` (stereo not drawn), for which the viability, T/C runs as follows: (compound 0.01 µM) 98.5% [middle of 5 runs]; (compound 0.0316 µM) 95.8% [middle of 5 runs]; (compound 0.1 µM) 68.8% [middle of 5 runs]; (compound 0.316 µM) 42.4% [middle of 5 runs]; (compound 1 µM) 28.1% [middle of 5 runs]; (compound 3.16 µM) 25.8% [middle of 5 runs]. For the same molecule, where the note is “curve of compound”, the IC50 was 217 nM [middle of 5 runs].

As to `CC(C)n1nc(-c2ccc3oc(N)nc3c2)c2c(N)ncnc21`, the viability, T/C is 107% [middle of 5 runs] (compound 0.000316 µM); 99.5% (2×) and 104% (2×) and 101% (compound 0.001 µM); 92.6% [middle of 5 runs] (compound 0.00316 µM); 63.2% [middle of 5 runs] (compound 0.01 µM); 33.3% [middle of 5 runs] (compound 0.0316 µM); 24.5% [middle of 5 runs] (compound 0.1 µM). In addition, for the setting “curve of compound”, the IC50 is 18.9 nM [middle of 4 runs].

Take `CC1(C)CCC(CN2CCN(c3ccc(C(=O)NS(=O)(=O)c4ccc(NCC5CCOCC5)c([N+](=O)[O-])c4)c(Oc4cnc5[nH]ccc5c4)c3)CC2)=C(c2ccc(Cl)cc2)C1`: the viability, T/C runs as follows: (compound 0.0316 µM) 103% [middle of 5 runs]; (compound 0.1 µM) 102% [middle of 5 runs]; (compound 0.316 µM) 101% [middle of 5 runs]; (compound 1 µM) 102% [middle of 5 runs]; (compound 3.16 µM) 96.3% [middle of 5 runs]; (compound 10 µM) 92.8% [middle of 5 runs]. Moreover, where the note is “curve of compound”, the concentration for half-maximal inhibition (IC50) is > 10 µM.

For the molecule `CC1COCCN1c1cc(-c2ccnn2C)c2ccnc(-c3ccn[nH]3)c2n1` (stereo not drawn), the viability, T/C is 99.3% [middle of 5 runs] (compound 0.01 µM), 47.7% [middle of 5 runs] (compound 0.316 µM), 38.6% [middle of 5 runs] (compound 1 µM) and 24.1% [middle of 5 runs] (compound 3.16 µM).

On to `CC1OCC2(CCN(c3cnc(Sc4ccnc(N)c4Cl)c(N)n3)CC2)C1N` (stereo not drawn), for which the viability, T/C is 91.3% and 92.3% and 111% (compound 0.0316 µM); 96.8% [middle of 19 runs] (compound 0.1 µM); 82.1% [middle of 19 runs] (compound 1 µM). The IC50 under setting [1] is > 10 µM; the IC50 under setting [2] was > 10 µM; the IC50 under setting [3] is > 10 µM and 3.88 µM; the IC50 (curve of compound) was > 10 µM.

As for `CCN1CCN(Cc2ccc(Nc3ncc(F)c(-c4cc(F)c5nc(C)n(C(C)C)c5c4)n3)nc2)CC1`, the viability, T/C by setting is: (compound 0.00316 µM) 98.6% [middle of 5 runs]; (compound 0.01 µM) 101% [middle of 5 runs]; (compound 0.0316 µM) 90.3% [middle of 5 runs]; (compound 0.1 µM) 83.7% [middle of 5 runs]; (compound 0.316 µM) 69.6% [middle of 5 runs]; (compound 1 µM) 42% [middle of 5 runs].

Regarding `CCNC(=O)CC1N=C(c2ccc(Cl)cc2)c2cc(OC)ccc2-n2c(C)nnc21` (stereo not drawn), the viability, T/C reads like this: (compound 0.0316 µM) 110% [middle of 5 runs]; (compound 0.1 µM) 100% [middle of 5 runs]; (compound 0.316 µM) 90.8% [middle of 5 runs]; (compound 1 µM) 88.9% [middle of 5 runs]. Further, the IC50 (curve of compound) was > 10 µM and 4.98 µM.

Take `CN(C)C/C=C/C(=O)Nc1cc2c(Nc3ccc(F)c(Cl)c3)ncnc2cc1O[C@H]1CCOC1`: the viability, T/C is 104% [middle of 5 runs] (compound 0.000316 µM); 108% [middle of 5 runs] (compound 0.001 µM); 104% [middle of 5 runs] (compound 0.00316 µM); 96.8% [middle of 5 runs] (compound 0.01 µM); 97.6% [middle of 5 runs] (compound 0.0316 µM); 81.5% [middle of 5 runs] (compound 0.1 µM). Besides, where the note is “curve of compound”, the IC50 was > 0.1 µM.

In the case of `COc1cc(Nc2ncc3c(n2)-c2ccc(Cl)cc2C(c2c(F)cccc2OC)=NC3)ccc1C(=O)O`, the viability, T/C is 80.7% [middle of 5 runs] (compound 0.0316 µM); 41.5% [middle of 5 runs] (compound 0.1 µM); 32.4% [middle of 5 runs] (compound 0.316 µM); 28.5% [middle of 5 runs] (compound 1 µM); 18.7% [middle of 5 runs] (compound 3.16 µM); 10.7% [middle of 5 runs] (compound 10 µM). Further, the IC50 (curve of compound) was 89.4 nM [middle of 5 runs].

As to `COc1cc(OC)cc(N(CCNC(C)C)c2ccc3ncc(-c4cnn(C)c4)nc3c2)c1`, the viability, T/C (compound 0.0316 µM) was 107% [middle of 5 runs]; the viability, T/C (compound 0.1 µM) is 100% [middle of 5 runs]; the viability, T/C (compound 0.316 µM) is 96.7% [middle of 5 runs].

As to `Cn1nccc1Nc1nccc(-c2cc3c(s2)C(C)(C)N(CCN2CCOCC2)C3=O)n1`, the viability, T/C is 92.9% [middle of 5 runs] (compound 0.0316 µM); 98.1% [middle of 5 runs] (compound 0.1 µM); 102% [middle of 5 runs] (compound 0.316 µM); 89.6% [middle of 5 runs] (compound 1 µM); 51.9% [middle of 5 runs] (compound 3.16 µM); 4.24% [middle of 5 runs] (compound 10 µM). Also, where the note is “curve of compound”, the IC50 was 3.28 µM [middle of 5 runs].

On to `Cn1ncnc1[C@H]1c2n[nH]c(=O)c3cc(F)cc(c23)N[C@@H]1c1ccc(F)cc1`, for which the viability, T/C reads like this: (compound 0.000316 µM) 102% [middle of 5 runs]; (compound 0.001 µM) 101% [middle of 5 runs]; (compound 0.00316 µM) 99.2% [middle of 5 runs]; (compound 0.01 µM) 98.7% [middle of 5 runs]; (compound 0.0316 µM) 101% [middle of 5 runs]; (compound 0.1 µM) 97.6% [middle of 5 runs]. For the same molecule, the IC50 (curve of compound) was > 0.1 µM.

In the case of `O=C(c1cc(Cc2n[nH]c(=O)c3ccccc23)ccc1F)N1CCN(C(=O)C2CC2)CC1`, the viability, T/C reads like this: (compound 0.0316 µM) 107% [middle of 5 runs]; (compound 0.1 µM) 108% [middle of 5 runs]; (compound 0.316 µM) 99.5% [middle of 5 runs]; (compound 1 µM) 99.5% [middle of 5 runs]; (compound 3.16 µM) 97.4% [middle of 5 runs]; (compound 10 µM) 99.1% [middle of 5 runs]. Also, the IC50 (curve of compound) is > 10 µM.

As usually defined, the viability, T/C is the result in the treated group divided by that in the control group, in per cent. The IC50 is the concentration that inhibits the measured activity by half.

The record behind these values is PubChem BioAssay AID1963868 (Molecular Pharmacology Branch, DTP, NCI, 2024).
